# In patent publication US12091425B2 (AMGEN INC., priority 2016, dated 2024):
# Target: T1, Mcl-1/Bim interaction, recombinant human Mcl-1 (171-327) (Homo sapiens, UniProt Q07820)
# T1 construct: made in house
# Assay: Cell free Mcl-1: Bim Affinity Assay (Mcl-1 HTRF)
# Assay type: binding
# Settings: TR-FRET, 0.1 nM Mcl-1 (171-327), 0.05 nM biotin-Bim (51-76)
# Procedure, shortened: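 TR-FRET competition assay with biotinylated human Bim peptide (residues 51-76); reaction plates incubated overnight before reading. IC50 values came from duplicate data fitted to a four-parameter sigmoidal competition curve.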
# T1 sequence (Q07820 171-327): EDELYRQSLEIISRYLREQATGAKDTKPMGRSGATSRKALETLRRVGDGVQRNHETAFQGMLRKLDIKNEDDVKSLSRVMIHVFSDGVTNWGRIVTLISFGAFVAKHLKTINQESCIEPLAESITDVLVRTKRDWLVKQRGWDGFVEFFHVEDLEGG
row,IC50 [nM],Structure (SMILES)
1,0.874,"O=C1NS(=O)(=O)C[C@@H](CO)C/C=C/[C@@H](O)[C@@H]2CC[C@H]2CN2C[C@@]3(CCCc4cc(Cl)ccc43)COc3ccc1cc32 (single isomer, unassigned) [Example 1089]"
2,6.85,"COC[C@H]1C/C=C/[C@H](OC)[C@@H]2CC[C@H]2CN2C[C@@]3(CCCc4cc(Cl)ccc43)COc3ccc(cc32)C(=O)NS(=O)(=O)[C@@H]1C [Example 2, (1S,3′R,6′R,7′S,8′E,11′R,12′R)-6-chloro-7′-methoxy-11′-(methoxymethyl)-12′-methyl-3,4-dihydro-2H,15′H-spiro[naphthalene-1,22′-[20]oxa[13]thia[1,14]diazatetracyclo[14.7.2.0^3,6.0^19,24]pentacosa [8,16,18,24]tetraen]-15′-one 13′,13′-dioxide]"
3,0.557,"CC[C@@H]1CC/C=C/[C@@H](NC(C)=O)[C@@H]2CC[C@H]2CN2C[C@@]3(CCCc4cc(Cl)ccc43)COc3ccc(cc32)C(=O)NS1(=O)=O (single isomer, unassigned) [Example 1078]"
4,2.54,"CC[C@@H]1CC/C=C/[C@@H](OC)[C@@H]2CC[C@H]2CN2C[C@@]3(CCCc4cc(Cl)ccc43)COc3ccc(cc32)C(=O)NS1(=O)=O [Example 1093, (1S,3′R,6′R,7′R,8′E,12′R)-6-chloro-7′-methoxy-12′-ethyl-3,4-dihydro-2H,15′H-spiro [naphthalene-1,22′-[20]oxa[13]thia[1,14]diazatetracyclo[14.7.2.0^3,6.0^19,24]pentacosa [8,16,18,24]tetraen]-15′-one 13′,13′-dioxide]"
5,0.378,CC[C@@H]1CC/C=C/[C@H](OCC(=O)N(C)C)[C@@H]2CC[C@H]2CN2C[C@@]3(CCCc4cc(Cl)ccc43)COc3ccc(cc32)C(=O)NS1(=O)=O [Example 973]
6,0.716,"CC[C@@H]1CC/C=C/[C@H](OCC(=O)NC)[C@@H]2CC[C@H]2CN2C[C@@]3(CCCc4cc(Cl)ccc43)COc3ccc(cc32)C(=O)NS1(=O)=O [Example 974, 2-(((1S,3′R,6′R,7′S,8′E,12′R)-6-chloro-12′-ethyl-13′,13′-dioxido-15′-oxo-3,4-dihydro-2H-spiro[naphthalene-1,22′-[20]oxa[13]thia[1,14]diazatetracyclo[14.7.2.0^3,6.0^19,24]pentacosa [8,16,18,24]tetraen]-7′-yl)oxy)-N-methylacetamide]"
7,3.14,"CC[C@@H]1CC/C=C/[C@H](OCC(=O)Nc2ccncc2)[C@@H]2CC[C@H]2CN2C[C@@]3(CCCc4cc(Cl)ccc43)COc3ccc(cc32)C(=O)NS1(=O)=O [Example 1000, 2-(((1S,3′R,6′R,7′S,8′E,12′R)-6-chloro-12′-ethyl-13′,13′-dioxido-15′-oxo-3,4-dihydro-2H-spiro[naphthalene-1,22′-[20]oxa[13]thia[1,14]diazatetracyclo[14.7.2.0^3,6.0^19,24]pentacosa [8,16,18,24]tetraen]-7′-yl)oxy)-N-4-pyridinylacetamide]"

row,Structure (SMILES),IC50 [nM]
1,"C[C@]12CC[C@H]1CN1C[C@@]3(CCCc4cc(Cl)ccc43)COc3ccc(cc31)C(=O)NS(=O)(=O)CCCCC[C@@H]2O (single isomer, unassigned) [Example 121]",12.2
2,"CC[C@@H]1CC[C@@H](O)/C=C/[C@@H]2CC[C@H]2CN2C[C@@]3(CCCc4cc(Cl)ccc43)COc3ccc(cc32)C(=O)NS1(=O)=O (single isomer, unassigned) [Example 198]",3.24
3,"CCOC[C@@H]1CC/C=C/[C@H](O)[C@@H]2CC[C@H]2CN2C[C@@]3(CCCc4cc(Cl)ccc43)COc3ccc(cc32)C(=O)NS1(=O)=O (single isomer, unassigned) [Example 439]",0.321
4,"CC(=O)N1C[C@@H]2C/C=C/[C@H](O)[C@@H]3CC[C@H]3CN3C[C@@]4(CCCc5cc(Cl)ccc54)COc4ccc(cc43)C(=O)NS(=O)(=O)[C@H]2C1 (single isomer, unassigned) [Example 339]",2.71
5,"O=C1NS(=O)(=O)C(C(F)F)CCC=CC(O)C2CCC2CN2CC3(CCCc4cc(Cl)ccc43)COc3ccc1cc32 (single isomer, unassigned) [Example 438]",0.731
6,"O=C1NS(=O)(=O)[C@H]2C[C@@H](O)C[C@@H]2C/C=C/[C@H](O)[C@@H]2CC[C@H]2CN2C[C@@]3(CCCc4cc(Cl)ccc43)COc3ccc1cc32 (single isomer, unassigned) [Example 336]",1.51

# Same assay, conditions: cell free Mcl-1:Bim TR-FRET, recombinant human Mcl-1 (171-327)
row,Structure (SMILES),IC50 [nM]
1,"O=C1NS(=O)(=O)CCOC/C=C/C2CCC2CN2C[C@@]3(CCCc4cc(Cl)ccc43)COc3ccc1cc32 (stereo in doubt) [Example 826, (3S,6R,7E,22S)-6′-chloro-3′,4′-dihydro-2′H,15H-spiro[10,20-dioxa-13-thia-1,14-diazatetracyclo[14.7.2.0^3,6.0^19,24]pentacosa-7,16,18,24-tetraene-22,1′-naphthalen]-15-one 13,13-dioxide]",10.5
2,"O=C1NS(=O)(=O)CCOCCC[C@@H]2CC[C@H]2CN2C[C@@]3(CCCc4ccccc43)COc3ccc1cc32 (stereo in doubt) [Example 824, (3S,6R,22S)-3′,4′-dihydro-2′H,15H-spiro[10,20-dioxa-13-thia-1,14-diazatetracyclo[14.7.2.0^3,6.^019,24]pentacosa-16,18,24-triene-22,1′-naphthalen]-15-one 13,13-dioxide]",20.1
3,"O=C1NS(=O)(=O)C[C@H](c2ccccc2)C/C=C/[C@H](O)[C@@H]2CC[C@H]2CN2C[C@@]3(CCCc4cc(Cl)ccc43)COc3ccc1cc32 (single isomer, unassigned) [Example 704]",40.5
4,"O=C1NS(=O)(=O)CCC[C@@H]2C[C@H]2[C@H](O)[C@@H]2CC[C@H]2CN2C[C@@]3(CCCc4cc(Cl)ccc43)COc3ccc1cc32 (single isomer, unassigned) [Example 950]",1.49
5,"CCC1CCCC(O)C2CCC2CN2CC3(CCCc4cc(Cl)ccc43)COc3ccc(cc32)C(=O)NS1(=O)=O (single isomer, unassigned) [Example 768]",2.24
6,"O=C1NS(=O)(=O)CCCCC[C@@H](NO)[C@@H]2CC[C@H]2CN2C[C@@]3(CCCc4cc(Cl)ccc43)COc3ccc1cc32 (single isomer, unassigned) [Example 933, (1S,3′R,6′R,7′R)-6-chloro-7′-(hydroxyamino)-3,4-dihydro-2H,15′H-spiro[naphthalene-1,22′-[20]oxa[13]thia[1,14]diazatetracyclo[14.7.2.0^3,6.0^19,24]pentacosa [16,18,24]trien]-15′-one 13′,13′-dioxide or (1S,3′R,6′R,7′S)-6-chloro-7′-(hydroxyamino)-3,4-dihydro-2H,15′H-spiro[naphthalene-1,22′-[20]oxa[13]thia[1,14]diazatetracyclo[14.7.2.0^3,6.0^19,24]pentacosa [16,18,24]trien]-15′-one 13′,13′-dioxide]",15
7,O=C1NS(=O)(=O)C[C@@H](CO)C/C=C/C[C@H](O)[C@@H]2CC[C@H]2CN2C[C@@]3(CCCc4cc(Cl)ccc43)COc3ccc1cc32.O=C1NS(=O)(=O)C[C@H](CO)C/C=C/C[C@H](O)[C@@H]2CC[C@H]2CN2C[C@@]3(CCCc4cc(Cl)ccc43)COc3ccc1cc32 (mixture of isomers) [Example 710],25.6
